The text below walks through data of patent publication US11472791B2 (Incyte Corporation, priority 2019, dated 2022).

The term IC50 denotes the point on the concentration scale where inhibition reaches its midpoint. A higher IC50 goes with weaker potency in that assay.

Where only a bound is given, the exact number is not on record here.

This experiment addresses CDK2/Cyclin E1 (Homo sapiens (Human), UniProt P24941). The experiment can be described thus: CDK2/Cyclin E1 HTRF enzyme activity assay. The class given is biochemical. The settings on record: 1 mM ATP. The procedure:
Assays are conducted in white 384-well polystyrene plates in a final reaction volume of 8 μL. […] HTRF signals are read after 1 hour at room temperature on a PHERAstar FS plate reader (BMG Labtech). Data is analyzed with IDBS XLFit and GraphPad Prism 5.0 software using a three or four parameter dose response curve to determine IC50 for each compound.
On the technique in general: In TR-FRET formats the signal depends on donor and acceptor labels being close together.
`C[C@@H]1CN(S(=O)(=O)c2ccccn2)CC[C@@H]1Nc1ncc(C(F)(F)F)c(-c2cnn(CC(C)(C)O)c2)n1` [Example 62, 2-Methyl-1-(4-(2-(((3R,4S)-3-methyl-1-(pyridin-2-ylsulfonyl)piperidin-4-yl)amino)-5-(trifluoromethyl)pyrimidin-4-yl)-1H-pyrazol-1-yl)propan-2-ol] yielded a 50% inhibitory concentration (IC50) of less than 50 nM.

Take `Cc1cc(CN2CCN(CC3CC3)CC2)ccc1-n1cc(-c2nc(NC3CCN(S(=O)(=O)c4cn(C)cn4)CC3)ncc2Cl)cn1` [Example 246, 5-Chloro-4-(1-(4-((4-(cyclopropylmethyl)piperazin-1-yl)methyl)-2-methylphenyl)-1H-pyrazol-4-yl)-N-(1-((1-methyl-1H-imidazol-4-yl)sulfonyl)piperidin-4-yl)pyrimidin-2-amine]: the IC50 is less than 50 nM. Turning to `Cc1nc(CN2CCN(C(C)C)CC2)ccc1-n1cc(-c2nc(N[C@H]3CCN(S(=O)(=O)c4cn(C)cn4)C[C@H]3C)ncc2C(F)(F)F)cn1` [Example 257, 4-(1-(6-((4-Isopropylpiperazin-1-yl)methyl)-2-methylpyridin-3-yl)-1H-pyrazol-4-yl)-N-((3R,4S)-3-methyl-1-((1-methyl-1H-imidazol-4-yl)sulfonyl)piperidin-4-yl)-5-(trifluoromethyl)pyrimidin-2-amine], the IC50 was less than 50 nM. The compound `Cc1nc(CNC(C)(C)C)ccc1-n1cc(-c2nc(NC3CCN(S(=O)(=O)c4cn(C)cn4)CC3)ncc2C#N)cn1` [Example 152, 4-(1-(6-((tert-Butylamino)methyl)-2-methylpyridin-3-yl)-1H-pyrazol-4-yl)-2-((1-((1-methyl-1H-imidazol-4-yl)sulfonyl)piperidin-4-yl)amino)pyrimidine-5-carbonitrile] returned an IC50 of less than 50 nM. Regarding `C[C@@H]1COCCN1CCCS(=O)(=O)N1CCC(Nc2ncc(C(F)(F)F)c(-c3cnn(CC(C)(C)O)c3)n2)CC1` [Example 72, (R)-2-Methyl-1-(4-(2-((1-((3-(3-methylmorpholino)propyl)sulfonyl)piperidin-4-yl)amino)-5-(trifluoromethyl)pyrimidin-4-yl)-1H-pyrazol-1-yl)propan-2-ol], the IC50 was less than 50 nM. Next, `Cc1nc(CNC(C)C)ccc1-n1cc(-c2nc(NC3CCN(S(=O)(=O)c4cn(C)cn4)CC3)ncc2C(F)(F)F)cn1` [Example 275, 4-(1-(6-((Isopropylamino)methyl)-2-methylpyridin-3-yl)-1H-pyrazol-4-yl)-N-(1-((1-methyl-1H-imidazol-4-yl)sulfonyl)piperidin-4-yl)-5-(trifluoromethyl)pyrimidin-2-amine]: less than 50 nM; `CN1CCN(CCCS(=O)(=O)N2CCC(Nc3ncc(C(F)(F)F)c(-c4cnn(CC(C)(C)O)c4)n3)CC2)CC1=O` [Example 70, 4-(3-((4-((4-(1-(2-Hydroxy-2-methylpropyl)-1H-pyrazol-4-yl)-5-(trifluoromethyl)pyrimidin-2-yl)amino)piperidin-1-yl)sulfonyl)propyl)-1-methylpiperazin-2-one]: less than 50 nM; `Cc1cc(CN2CCN(C)[C@@H](CC#N)C2)ccc1-n1cc(-c2nc(NC3CCN(S(=O)(=O)c4cn(C)cn4)CC3)ncc2C(F)(F)F)cn1` [Example 230, (S)-2-(1-Methyl-4-(3-methyl-4-(4-(2-((1-((1-methyl-1H-imidazol-4-yl)sulfonyl)piperidin-4-yl)amino)-5-(trifluoromethyl)pyrimidin-4-yl)-1H-pyrazol-1-yl)benzyl)piperazin-2-yl)acetonitrile]: less than 50 nM. Consider `Cc1nn(C2CCN(C)CC2)cc1-c1ccnc(NC2CCN(S(C)(=O)=O)CC2)n1` [Example 16, 4-(3-Methyl-1-(1-methylpiperidin-4-yl)-1H-pyrazol-4-yl)-N-(1-(methylsulfonyl)piperidin-4-yl)pyrimidin-2-amine], for which the IC50 lay within 50 to 200 nM. `[2H]C([2H])([2H])NCc1ccc(-n2cc(-c3nc(N[C@H]4CCN(S(=O)(=O)C5CC5)C[C@H]4C)ncc3C#N)cn2)c(Cl)c1` [Example 146, 4-(1-(2-Chloro-4-(((methyl-d3)amino)methyl)phenyl)-1H-pyrazol-4-yl)-2-(((3R,4S)-1-(cyclopropylsulfonyl)-3-methylpiperidin-4-yl)amino)pyrimidine-5-carbonitrile]: the IC50 is less than 50 nM. In turn, `CN(C)C1CCC(S(=O)(=O)N2CCC(Nc3ncc(C(F)(F)F)c(-c4cnn(CC(C)(C)O)c4)n3)CC2)CC1` (single isomer, unassigned) [88 (peak 2), 1-(4-(2-((1-((4-(Dimethylamino)cyclohexyl)sulfonyl)piperidin-4-yl)amino)-5-(trifluoromethyl)pyrimidin-4-yl)-1H-pyrazol-1-yl)-2-methylpropan-2-ol] had an IC50 of less than 50 nM. Regarding `CC(C)(O)Cn1cc(-c2nc(NC3CCN(S(=O)(=O)C4CCC(N5CCCC5)CC4)CC3)ncc2C(F)(F)F)cn1` (single isomer, unassigned) [91 (peak 1), 2-Methyl-1-(4-(2-((1-((4-(pyrrolidin-1-yl)cyclohexyl)sulfonyl)piperidin-4-yl)amino)-5-(trifluoromethyl)pyrimidin-4-yl)-1H-pyrazol-1-yl)propan-2-ol], the 50% inhibitory concentration (IC50) is less than 50 nM. Next, `C[C@@H]1CN(S(=O)(=O)c2cn(C)cn2)CC[C@@H]1Nc1ncc(C(F)(F)F)c(-c2cnn(CC(C)(C)O)c2)n1` [Example 61, 2-Methyl-1-(4-(2-(((3R,4S)-3-methyl-1-((1-methyl-1H-imidazol-4-yl)sulfonyl)piperidin-4-yl)amino)-5-(trifluoromethyl)pyrimidin-4-yl)-1H-pyrazol-1-yl)propan-2-ol]: less than 50 nM; `CNCc1ccc(-n2cc(-c3nc(NC4CCN(S(=O)(=O)c5cn(C)cn5)CC4)ncc3Cl)cn2)c(C)n1` [Example 266, 5-Chloro-N-(1-((1-methyl-1H-imidazol-4-yl)sulfonyl)piperidin-4-yl)-4-(1-(2-methyl-6-((methylamino)methyl)pyridin-3-yl)-1H-pyrazol-4-yl)pyrimidin-2-amine]: less than 50 nM; `COC(=O)NC1CCCCC1NCc1ccc(-n2cc(-c3nc(NC4CCN(S(C)(=O)=O)CC4)ncc3C#N)cn2)c(Cl)c1` (centres unmarked) [Example 166, Methyl (2-((3-chloro-4-(4-(5-cyano-2-((1-(methylsulfonyl)piperidin-4-yl)amino)pyrimidin-4-yl)-1H-pyrazol-1-yl)benzyl)amino)cyclohexyl)carbamate]: less than 50 nM.

As to `CC(C)(O)Cn1cc(-c2nc(N[C@H]3CCN(S(C)(=O)=O)C[C@H]3F)ncc2C(F)(F)F)cn1` [Example 58, 1-(4-(2-(((3R,4S)-3-Fluoro-1-(methylsulfonyl)piperidin-4-yl)amino)-5-(trifluoromethyl)pyrimidin-4-yl)-1H-pyrazol-1-yl)-2-methylpropan-2-ol], the IC50 was less than 50 nM. Turning to `[2H]C([2H])([2H])NCc1ccc(-n2cc(-c3nc(N[C@H]4CCN(S(=O)(=O)c5ccn(C)n5)C[C@H]4C)ncc3C#N)cn2)c(Cl)c1` [Example 147, 4-(1-(2-Chloro-4-(((methyl-d3)amino)methyl)phenyl)-1H-pyrazol-4-yl)-2-(((3R,4S)-3-methyl-1-((1-methyl-1H-pyrazol-3-yl)sulfonyl)piperidin-4-yl)amino)pyrimidine-5-carbonitrile], the IC50 is less than 50 nM.
